Molecular target: T1, β-secretase(BACE) (Homo sapiens, UniProt P56817)
T1 construct: purchased Panvera
Test: BACE FS1% Inhibition Assay
Assay type: biochemical
Conditions: FS1 substrate
Summary of the method: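 Percent inhibition at each tested concentration, referenced to enzyme-free blank and vehicle-only positive control. Reaction: compound and BACE (4 μg/mL working stock) mixed 20 min at room temperature before FS1 substrate (300 μg/mL working stock), then 1 h at room temperature.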

T1 sequence (P56817 46-501): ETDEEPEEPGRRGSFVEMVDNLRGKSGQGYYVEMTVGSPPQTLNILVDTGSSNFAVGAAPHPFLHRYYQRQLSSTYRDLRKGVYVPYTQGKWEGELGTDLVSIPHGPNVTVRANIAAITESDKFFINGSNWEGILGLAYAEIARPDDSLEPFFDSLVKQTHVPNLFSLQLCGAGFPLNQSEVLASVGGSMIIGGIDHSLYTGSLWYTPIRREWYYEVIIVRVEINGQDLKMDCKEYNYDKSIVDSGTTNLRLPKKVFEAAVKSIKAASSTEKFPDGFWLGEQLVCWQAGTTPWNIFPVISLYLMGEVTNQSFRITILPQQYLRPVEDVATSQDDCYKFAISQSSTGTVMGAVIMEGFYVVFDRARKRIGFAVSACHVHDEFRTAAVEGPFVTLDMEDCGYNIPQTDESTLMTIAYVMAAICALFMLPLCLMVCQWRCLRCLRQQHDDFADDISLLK

Row | Compound | % Inhibition (FS) 0.3 μM (0.3 μM test compound) [%] | % Inhibition (FS) 1 μM (1 μM test compound) [%] | % Inhibition (FS) 3 μM (3 μM test compound) [%] | also measured
1 | CC(C)CCOc1ccc2c(c1)CN(Cc1cccc(C(=O)N(C)C3CCCCC3)c1)C(N)=N2 [Compound 517, 3-[2-Amino-6-(3-methyl-butoxy)-4H-quinazolin-3-ylmethyl]-N-cyclohexyl-N-methyl-benzamide] | – | – | – | inhibition at 0.3 µM (0.3 μM test compound, read-out: % Inhibition (FS) 0.3 μM): < 30%; inhibition at 1 µM (1 μM test compound, read-out: % Inhibition (FS) 1 μM): < 30%; inhibition at 3 µM (3 μM test compound, read-out: % Inhibition (FS) 3 μM): 40%
2 | CC(=O)N1CCC(C(=O)NCCN2Cc3cc(-c4ccccc4)ccc3N=C2N)CC1 [Compound 702] | – | – | – | % Inhibition (FS) (0.3 μM test compound): <30%; % Inhibition (FS) (1 μM test compound): <30%; % Inhibition (FS) (3 μM test compound): <30%
3 | NC1=Nc2ccc(Oc3ccccc3)cc2CN1Cc1cccc(C(=O)NCCc2ccc(S(N)(=O)=O)cc2)c1 [Compound 188] | <30 | <30 | <30 | –
4 | NC1=Nc2ccc(-c3ccccc3F)cc2CN1CCNC(=O)CCC(F)(F)F [Compound 680] | – | – | – | % Inhibition (FS) (0.3 μM test compound): 42%; % Inhibition (FS) (1 μM test compound): 75%; % Inhibition (FS) (3 μM test compound): 90%
5 | CCCC=Cc1ccc2c(c1)CN(CCNC(=O)CCC)C(N)=N2 [Compound 571] | <30 | <30 | <30 | –
6 | CCCCC(CC)CN(CC(CC)CCCC)C(=O)c1cccc(CN2Cc3cc(Oc4ccccc4)ccc3N=C2N)c1 (centres unmarked) [Compound 198] | <30 | <30 | <30 | –
7 | NC1=Nc2ccc(-c3ccccc3)cc2CN1CCNC(=O)Cc1ccccc1 [Compound 595] | 32 | 70 | 104 | –
8 | NC1=Nc2ccc(-c3cnc4ccccc4c3)cc2CN1CCNC(=O)C1CCC1 [Compound 670] | – | – | – | % Inhibition (FS) (0.3 μM test compound): <30%; % Inhibition (FS) (1 μM test compound): <30%; % Inhibition (FS) (3 μM test compound): 44%
9 | CCCC=Cc1ccc2c(c1)CN(CCNC(=O)C(C)(C)C)C(N)=N2 [Compound 574] | <30 | <30 | <30 | –
10 | NC1=Nc2ccc(-c3cccc(C(F)(F)F)c3)cc2CN1CCNC(=O)CC1CCCC1 [Compound 584] | <30 | <30 | 56 | –
11 | CNC(=O)C1CCC(N(C)C(=O)CCC(C2CCCCC2)N2Cc3cc(Oc4ccccc4)ccc3N=C2N)CC1 (centres unmarked) [Compound 765] | – | – | – | % Inhibition (FS) (0.3 μM test compound): <30%; % Inhibition (FS) (1 μM test compound): 56%; % Inhibition (FS) (3 μM test compound): 97%

Further lines, with some results ahead:

Row | % Inhibition (FS) 0.3 μM (0.3 μM test compound) [%] | % Inhibition (FS) 1 μM (1 μM test compound) [%] | % Inhibition (FS) 3 μM (3 μM test compound) [%] | Compound | also measured
12 | <30 | <30 | 90 | CN(C(=O)c1ccc(CN2Cc3cc(Oc4ccccc4)ccc3N=C2N)s1)C1CCCCC1 [Compound 503] | –
13 | <30 | <30 | 39 | CC1CCC(N(C(=O)c2cccc(CN3Cc4cc(Oc5ccccc5)ccc4N=C3N)c2)C2CCC(C)CC2)CC1 (centres unmarked) [Compound 187] | –
14 | – | – | 56 | NC1=Nc2ccc(Oc3ccccc3)cc2CN1C1c2ccccc2-c2cccc(C(=O)N(C3CCCCC3)C3CCCCC3)c21 (centres unmarked) [Compound 124] | % Inhibition (FS) 10 μM (10 μM test compound): 67%
15 | 69 | 107 | 118 | CCC(c1cccc(C(=O)N(C)C2CCCCC2)c1)N1Cc2cc(-c3ccccc3OC)ccc2N=C1N (racemic) [Compound 395] | –
16 | <30 | <30 | 67 | NC1=Nc2ccc(Oc3ccccc3)cc2CN1C1CCCCN(C(=O)C23CC4CC(CC(C4)C2)C3)C1 (centres unmarked) [Compound 550] | –
17 | <30 | 30 | 70 | CN(C(=O)CCC(C1CCCCC1)N1Cc2cc(Oc3ccccc3)ccc2N=C1N)C1CCOCC1 (centres unmarked) [Compound 633] | –
18 | <30 | <30 | <30 | CN(C(=O)c1cccc(CN2Cc3cc(Oc4ccccc4C(=O)N4CCCC4)ccc3N=C2N)c1)C1CCCCC1 [Compound 483] | –

Source: patent US8383637B2, “2-amino-quinazoline derivatives useful as inhibitors of β-secretase (BACE)” (Jansssen Pharmaceutica N.V., priority 2004, dated 2013)
